From publication PMC12040169 (PLOS Biology, 2025)

Experiment: in vitro
Conditions: human, hela cells, % viability

Row | Compound | viability at 28.5 h, 10 µM
1 | O=C(Nc1ccc(S(=O)(=O)Nc2ncccn2)cc1)c1ccc(N2C(=O)c3ccccc3C2=O)cc1 [CBK264868] | 94%
2 | S=C1NC2c3ccccc3OC3(CCCCC23)N1 (centres unmarked) [CBK288506] | 102%
3 | COc1ccc(CC(=O)N2CC[C@H]3NC(=O)N(c4ccccc4)C(=O)[C@H]32)cc1 [CBK289278] | 92.7%
4 | COc1ccc(Br)cc1S(=O)(=O)Nc1c(C(=O)O)[nH]c2ccccc12 [CBK049887] | 97.5%
5 | CCCn1c(=S)[nH]c2cc(C(=O)NCCc3ccc(Cl)cc3)ccc2c1=O [CBK294445] | 88.6%
6 | CC(=O)NCCSc1cncc(NC(C)C)n1 [CBK105291] | 84.9%
7 | Cc1nn(-c2ccccn2)c(C)c1[C@@H]1C=C[C@@H](NC(=O)NC(C)C)C1 [CBK289168] | 91.4%
8 | Cc1ccc2c(c1)C(Oc1cncc(N3CCNCC3)n1)CCO2 (centres unmarked) [CBK172334G] | 99.7%
9 | COc1ccc(NC(=O)c2ccc(N(C)Cc3ccccc3)c([N+](=O)[O-])c2)cc1 [CBK268094] | 86.4%
10 | Cc1ccc(NC(=O)c2ccccc2NS(=O)(=O)c2cccc(C(=O)O)c2)cc1 [CBK296695] | 122%
11 | CCN(CC)C(=O)CSc1nnc[nH]1 [CBK026212] | 93.3%
12 | COc1cc(OC)c(NC(=O)CSc2ccccn2)cc1Cl [CBK267303] | 92.5%
13 | COc1ccc(OCC(=O)Nc2ccc(CN3CCOCC3)cc2)cc1 [CBK269686] | 105%
14 | CC(NC(=O)N(Cc1ccc(CN)cc1)Cc1ccc2ccccc2c1)c1cccc2ccccc12 (centres unmarked) [CBK046092C] | 90%
15 | Cn1nccc1C(=O)N1CCC2(C/C=C/COc3ccccc3C(=O)NC[C@@H](Cc3ccccc3)NC2=O)CC1 [CBK292183] | 99.8%
16 | CCN1CC2(CCN(Cc3cccc(-c4ccccn4)c3)CC2)CC1=O [CBK307399] | 107%
17 | CC(=O)Nc1cccc(NC(=O)CCCC(=O)O)c1 [CBK261598] | 97.9%
18 | Cc1ccc(CCC(=O)NNc2ccccc2)o1 [CBK260924] | 90.5%
19 | CCn1c(CN2CCCC2c2nc(N(C)C)ncc2-c2ccccc2)nc2ccccc21 (centres unmarked) [CBK286070] | 83.4%
20 | CC(=O)Nc1nc(OCC(F)(F)F)cnc1-c1cccc(C(=O)N(C)C)c1 [CBK145401] | 96%
21 | O=C(O)CC1S/C(=N/N=C2/C(=O)Nc3ccccc32)N(c2ccc(O)cc2)C1=O (centres unmarked) [CBK263723] | 93%
22 | COc1ccc(OC(=O)c2cc(S(=O)(=O)N3CCOCC3)ccc2Cl)cc1 [CBK261655] | 88.9%
23 | O=C(NC(Cc1cccs1)c1nccs1)C1CCOC1 (centres unmarked) [CBK285054] | 80.6%

Row | Compound | viability at 28.5 h, 10 µM
24 | COCc1cccc(-c2nccnc2OC)c1 [CBK106956] | 95.2%
25 | CCCn1ccnc1SCC(=O)Nc1ccc(CN2CCOCC2)cc1 [CBK306068] | 87.8%
26 | COc1ccc2[nH]c(SCC(=O)Nc3ccc(Br)cc3)nc2c1 [CBK263447] | 91%
27 | O=C(CSc1nc(-c2ccccc2)cc(=O)[nH]1)NCc1ccccc1 [CBK287734] | 82.7%
28 | O=c1nc(CNc2ccc(Br)cc2)[nH][nH]1 [CBK288403] | 86.2%
29 | Cc1ccnc(SCC(N)=O)n1 [CBK028874] | 96.1%
30 | Cc1c(CN2CCC3(CC2)CC(c2ccccc2)CN(C)C3)cnn1C (centres unmarked) [CBK306666] | 105%
31 | Cc1nc2ccc(C(=O)NCCn3ccnc3C)cc2s1 [CBK282477] | 88.1%
32 | Cc1nc2nc(N)nn2c(C)c1CCC(=O)NCCc1ccccc1 [CBK304989] | 89.5%
33 | Cc1cc(-c2cn3cc(C(=O)N4CCCC4)nc3c(=O)n2C)c(C)o1 [CBK307300] | 83.3%
34 | CCN1CCC[C@@H]1CNC(=O)c1ccncc1 [CBK174659] | 113%
35 | Nc1nnnn1/N=C/c1cc(Cl)cc(Cl)c1OCc1ccc(Cl)cc1Cl [CBK263853] | 107%
36 | Cc1nn(-c2nc3ccccc3s2)c(O)c1C [CBK270254] | 87.8%
37 | OC1(c2ccc(F)cc2)CCCC2CN(Cc3cccnc3)CC21 (centres unmarked) [CBK284377] | 86.8%
38 | O=P(O)(CCc1ccncc1)CN1CCCCC1 [CBK262323] | 104%
39 | O=C1NC2(CCc3ccccc31)CCN(C(=O)c1ccccn1)C2 (centres unmarked) [CBK283337] | 96%
40 | Nc1nc(N)c([C@H]2C[C@@H](O)[C@@H](CO)O2)nc1Cl [CBK201326] | 103%
41 | Cc1nc2c3ccccc3nc(SCC(=O)Nc3ccccc3)n2n1 [CBK295205] | 78.5%
42 | Cn1cc(CC(=O)Nc2ccc(N3CCNCC3)nc2)c2ccccc21 [CBK028275T] | 72.1%
43 | O=C(CCSc1ccc([N+](=O)[O-])cc1Cl)Nc1ccc(Br)c2cccnc12 [CBK266407] | 86.7%
44 | COc1cc(-c2cncc(NCc3cccc(Cl)c3)n2)cc(OC)c1OC [CBK065284] | 115%
45 | CC1(C)CCCN1C1=NC(=O)C(c2ccccc2)O1 (centres unmarked) [CBK023070] | 104%
46 | CSc1nsc(SCC(=O)Nc2cccc(NC(C)=O)c2)n1 [CBK269833] | 93.2%

Row | Compound | viability at 28.5 h, 10 µM
47 | CC(C)NC(=O)Cn1nnc(-c2cccc(C(F)(F)F)c2)n1 [CBK304275] | 95.2%
48 | CS(=O)(=O)N(Cc1ccccc1)c1ccc(C(=O)N2CCN(Cc3ccccc3)CC2)cc1 [CBK264134] | 114%
49 | Cc1nc(C)n(CC2CCCN(S(=O)(=O)c3cnc4ccsc4c3)C2)n1 (centres unmarked) [CBK306274] | 84.3%
50 | Cc1cc(C)nc(N2CCC(c3cc(CCOc4ccc(C(F)(F)F)cc4)[nH]n3)C2)n1 (centres unmarked) [CBK286073] | 93.5%
51 | COc1cc(-c2ccc3ccc(N)nc3n2)cc(OC)c1OC [CBK061866] | 90.6%
52 | COC(=O)c1cc(C)nc2sc(C)c(N)c12 [CBK115343] | 85.8%
53 | CCn1cc(-c2nc3cc(S(=O)(=O)NC(C)C)ccc3n2C(C)C)cn1 [CBK307311] | 98.7%
54 | CC(=O)N1CCC(C(=O)NC(=O)NCCOc2ccccc2Cl)CC1 [CBK034842] | 97.9%
55 | CCCCNc1cc(N2CCOC(Cn3cc(C)cn3)C2)nc(N)n1 (centres unmarked) [CBK305417] | 53.3%
56 | O=C1NC(=O)C(CC(=O)N2CCC(Cn3cncn3)(C3CCCCC3)CC2)N1 (centres unmarked) [CBK136808] | 94.3%
57 | O=C(NC1(CN2CCCCC2)CCCCC1)NS(=O)(=O)c1ccc(Cl)cc1 [CBK022858] | 94.4%
58 | CCN(C(=O)Cn1cccc(OC)c1=O)C1CCOC(C)(C)C1 (centres unmarked) [CBK306879] | 86.5%
59 | CCc1nccn1CCC(=O)NC1CCN(c2ccc(F)cc2)CC1 [CBK306760] | 90.1%
60 | CCOc1cccc(-c2cn3ccnc3c(Nc3ccc(Cl)cc3)n2)c1 [CBK066505] | 92.1%
61 | Cc1cccc(C)c1NC(=O)CN(c1ccc(F)cc1)S(=O)(=O)c1ccc2c(c1)OCCO2 [CBK264878] | 104%
62 | CS(=O)(=O)c1ccc(-c2nccnc2NCc2cccnc2)cc1 [CBK036977] | 104%
63 | CC(C)N(C(=O)CN1C(=O)N2CCCN=C2c2ccccc21)C(C)C [CBK284400] | 100%
64 | COc1cccc(/C=N/c2cc(S(=O)(=O)c3ccc(O)c(/N=C/c4cccc(OC)c4O)c3)ccc2O)c1O [CBK261225] | 92.4%
65 | CC(=O)Nc1cccc(NC(=O)c2ccc(CN3CCc4ccccc4C3)cc2)c1 [CBK269534] | 92.2%
66 | COc1cc(Nc2nc(-c3cccc(OC(F)(F)F)c3)cn3ccnc23)cc(OC)c1OC [CBK038036] | 101%
67 | O=S(=O)(Nc1nnc(C(F)(F)F)s1)c1ccc(-c2ccccn2)s1 [CBK062016] | 91.9%
68 | CCS(=O)(=O)c1ccc2oc([C@H]3CCN(S(=O)(=O)c4ccccc4)C3)nc2c1 [CBK289382] | 88.2%
69 | COc1cc(OC)cc(C(=O)Nc2nnc(C(F)(F)F)s2)c1 [CBK099828] | 88.7%

Row | Compound | viability at 28.5 h, 10 µM
70 | CCCCNC(=O)c1ccc2nc(CC)c(N(C)C(=O)C3CCCCC3)n2c1 [CBK145791] | 88.9%
71 | CC(C)c1ccc(S(=O)(=O)Nc2ccc(O)c(Sc3nc[nH]n3)c2)cc1 [CBK266861] | 90.8%
72 | C[C@]12CN(CC3CC=CCC3)C[C@H]1C(=O)Nc1ccccc1C(=O)N2 (some centres unmarked) [CBK284738] | 96.6%
73 | CCCN1CCC(CNC(=O)c2cc(C3CCCCC3)no2)CC1 [CBK283297] | 98.2%
74 | CN(Cc1cnc(-c2ccncc2)cn1)C1CCN(C(=O)OC(C)(C)C)CC1 [CBK172979] | 93.4%
75 | Cc1cc(-c2cn3cc(C(=O)N4CCCC4C)nc3c(=O)n2C)c(C)o1 (centres unmarked) [CBK307038] | 84.8%
76 | CN(CC(N)=O)C(=O)CCn1c(=O)oc2cc(Cl)ccc21 [CBK305757] | 94.9%
77 | Cc1ccc(C2(C(=O)N3CCC(O)(c4ccccn4)CC3)CC2)cc1 [CBK283754] | 96.4%
78 | CN(C)CCSc1nc2cc(Cl)ccc2o1 [CBK266337C] | 96.6%
79 | COc1ccc(C(=O)Nc2ccccc2O)cc1S(=O)(=O)N1CCCCC1 [CBK269665] | 92.6%
80 | COCCNc1nc(-c2cccs2)cn2ccnc12 [CBK066408] | 99.3%
81 | Cc1nc2c(c(=O)[nH]1)CN(Cc1ccc(-c3ccccc3)cc1)CC2 [CBK283952] | 99%
82 | O=C(NCCCn1ccnc1)c1ccccc1C(=O)c1ccccc1 [CBK262954] | 93.2%
83 | Cc1ccc(NC2(C#N)C(=O)Nc3ccccc32)cc1C (centres unmarked) [CBK116388] | 114%
84 | CCOC(=O)CN1CCC(Oc2nccnc2OCCN2CCOCC2)CC1 [CBK082929] | 103%
85 | O=C(c1ccc2nc[nH]c2c1)N1Cc2ccccc2C1 [CBK200322] | 103%
86 | N#Cc1cccc(C(=O)N2CCCC3(CCN(Cc4ccccc4)C3)C2)c1 (centres unmarked) [CBK136893] | 92%
87 | Cc1cccc(CSc2nc3ncccc3[nH]2)c1 [CBK287963] | 96.9%
88 | O=C(N[C@@H](Cn1cc(F)c(=O)[nH]c1=O)C(=O)O)C1CCCCC1 [CBK289661] | 89.2%
89 | O=C(NCCC1=CCCCC1)Nc1ccc(SC(F)(F)F)cc1 [CBK043725] | 85.7%
